Reference: publication PMC4660370 (Nature Communications, 2015)
Read-outs that look alike come from different tables or passages of the source.

Experiments:
HsIMPDH1 = biological target: T1, HsIMPDH1 (Homo sapiens, UniProt P20839); experiment: IMPDH activity assay and enzyme kinetics, HsIMPDH1; type: biochemical; details: for effect on catalytic activity: ATP with or without 5 mM MgCl2; for α (substrate–inhibitor heterotropic cooperative interaction) / β (fractional activity of the ternary enzyme–substrate-inhibitor complex): mixed inhibition model
T1 construct: His8 (modified pET15b vector, TEV site) (N); made in house
Protocol: (§1) IMPDH activity was assayed by monitoring the reduction of NAD^+ to NADH and the subsequent increase in absorbance at 340 nm in buffer: 100 mM Tris-HCl, 100 mM KCl, 2 mM DTT pH 8.0. […] When Mg^+2 was included in the reaction, the total concentration of MgCl2 was 5 mM. The experimental data were fitted to the Michaelis–Menten equation of enzyme kinetics using the OriginPro software (OriginLab Corporation), to obtain the maximum apparent initial velocity (Vmax^app) and the apparent Michaelis–Menten constant (KM^app):
(§2) Following this equation, the global nonlinear regression analysis of Vmax^app and KM^app, as a function of the inhibitor concentration, allowed the intrinsic Michaelis–Menten constant (KM) and inhibition constant (Ki) for competitive inhibition to be determined. The substrate–inhibitor heterotropic cooperative interaction and the fractional activity of the ternary enzyme–substrate–inhibitor complex, α and β respectively, were estimated using a mixed inhibition model:
(§3) The constant α reflects the effect of the inhibitor on the apparent affinity of the enzyme for the substrate.

EcIMPDH = biological target: T2, EcIMPDH (Escherichia coli, UniProt P0ADG7); experiment: biochemical; type: biochemical; details: for effect on catalytic activity: ATP with or without 5 mM MgCl2
T2 construct: His8 (TEV site) (N, cleaved yes); made in house; host or cells: E. coli BL21 (DE3)
Protocol: as §1, §2, §3

AgIMPDH [1] = biological target: T3, AgIMPDH (Eremothecium gossypii, UniProt Q756Z6); experiment: IMPDH activity assay and enzyme kinetics (NADH absorbance at 340 nm), AgIMPDH; type: biochemical, A. gossypii; details: for effect on AgIMPDH catalytic activity in vitro: adenine nucleotides; for α (substrate–inhibitor heterotropic cooperative interaction) / β (fractional activity of the ternary enzyme–substrate-inhibitor complex): mixed inhibition model
Protocol: as §1, §2, §3

AgIMPDH [2] = biological target: T3, AgIMPDH; experiment: biochemical
Protocol: (§4) Standard ITC experiments were performed using an AutoITC200 system (Malvern Instruments). […] The resulting heats were integrated and fitted to a single binding site model implemented in the software package Origin (OriginLab Corporation).

AgIMPDH-ΔBateman = AgIMPDH-ΔBateman (Eremothecium gossypii, UniProt Q756Z6, DEL116-235/INS115SQDG); experiment: Isothermal titration calorimetry, AgIMPDH-ΔBateman; type: binding, A. gossypii
Protocol: as §4

HsIMPDH2 = biological target: T4, HsIMPDH2 (Homo sapiens, UniProt P12268); experiment: IMPDH activity assay and enzyme kinetics, HsIMPDH2; type: biochemical; details: for effect on catalytic activity: ATP with or without 5 mM MgCl2; for α (substrate–inhibitor heterotropic cooperative interaction) / β (fractional activity of the ternary enzyme–substrate-inhibitor complex): mixed inhibition model
T4 construct: His8 (modified pET15b vector, TEV site) (N); made in house
Protocol: as §1, §2, §3

AgIMPDH [3] = biological target: T3, AgIMPDH; details: GMP titration, WT
Protocol: as §4

BsIMPDH = biological target: T5, BsIMPDH (Bacillus subtilis, UniProt P21879); experiment: biochemical; type: biochemical, Bacillus subtillis; details: for effect on catalytic activity: ATP with or without 5 mM MgCl2
T5 construct: His8 (TEV site) (N, cleaved yes); made in house; host or cells: E. coli BL21 (DE3)
Protocol: as §1, §2, §3

AgIMPDH ΔBateman = experiment: IMPDH activity assay, mutant lacking the Bateman domain; type: biochemical, A. gossypii; details: 2 mM nucleotide
Protocol: as §1, with “(KM^app): […]” for “(KM^app):”

T2 sequence (P0ADG7 whole entry): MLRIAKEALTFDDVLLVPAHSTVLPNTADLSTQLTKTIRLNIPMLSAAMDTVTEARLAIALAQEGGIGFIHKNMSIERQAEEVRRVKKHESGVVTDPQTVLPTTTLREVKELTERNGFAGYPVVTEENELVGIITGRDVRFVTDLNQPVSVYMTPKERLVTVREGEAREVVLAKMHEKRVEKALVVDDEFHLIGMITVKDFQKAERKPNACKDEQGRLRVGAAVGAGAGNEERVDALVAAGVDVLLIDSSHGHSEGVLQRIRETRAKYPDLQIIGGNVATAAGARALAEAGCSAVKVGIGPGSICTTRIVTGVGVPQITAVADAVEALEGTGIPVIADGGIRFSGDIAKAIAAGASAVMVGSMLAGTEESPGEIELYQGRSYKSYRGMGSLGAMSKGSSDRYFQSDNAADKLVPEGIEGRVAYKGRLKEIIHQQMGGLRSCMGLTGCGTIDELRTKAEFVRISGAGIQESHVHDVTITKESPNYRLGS
T1 sequence (P20839 whole entry): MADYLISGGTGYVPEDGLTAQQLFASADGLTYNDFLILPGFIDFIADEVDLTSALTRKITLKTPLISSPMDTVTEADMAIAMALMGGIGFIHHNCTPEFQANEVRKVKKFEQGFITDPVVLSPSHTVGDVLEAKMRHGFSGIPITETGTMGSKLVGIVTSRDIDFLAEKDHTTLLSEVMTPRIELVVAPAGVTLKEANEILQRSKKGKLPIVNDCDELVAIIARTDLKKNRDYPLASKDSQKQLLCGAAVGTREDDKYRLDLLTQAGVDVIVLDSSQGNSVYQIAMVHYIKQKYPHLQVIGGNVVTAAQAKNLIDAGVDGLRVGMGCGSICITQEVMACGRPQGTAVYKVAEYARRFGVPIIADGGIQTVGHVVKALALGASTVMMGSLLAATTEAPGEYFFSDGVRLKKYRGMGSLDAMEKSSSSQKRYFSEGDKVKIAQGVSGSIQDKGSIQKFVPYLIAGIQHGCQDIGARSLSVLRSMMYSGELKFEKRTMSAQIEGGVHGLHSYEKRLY
T5 sequence (P21879 whole entry): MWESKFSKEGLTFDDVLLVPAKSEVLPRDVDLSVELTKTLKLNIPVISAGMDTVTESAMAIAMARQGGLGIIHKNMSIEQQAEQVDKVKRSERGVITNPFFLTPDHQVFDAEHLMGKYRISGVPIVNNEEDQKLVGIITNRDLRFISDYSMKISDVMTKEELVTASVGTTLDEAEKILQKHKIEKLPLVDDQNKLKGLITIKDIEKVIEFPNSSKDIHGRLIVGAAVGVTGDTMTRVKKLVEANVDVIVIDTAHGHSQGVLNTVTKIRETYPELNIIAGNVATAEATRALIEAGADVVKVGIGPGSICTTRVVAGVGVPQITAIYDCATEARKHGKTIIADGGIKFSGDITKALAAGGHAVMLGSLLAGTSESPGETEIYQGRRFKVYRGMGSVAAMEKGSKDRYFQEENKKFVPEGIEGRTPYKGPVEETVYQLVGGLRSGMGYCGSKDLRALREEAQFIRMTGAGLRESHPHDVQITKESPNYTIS

SMILES: Nc1nc2c(ncn2[C@@H]2O[C@H](COP(=O)(O)O)[C@@H](O)[C@H]2O)c(=O)[nH]1 [GMP, guanosine-5′-monophosphate]
- Inhibition (type) (HsIMPDH1): Competitive
- Inhibition (type) (EcIMPDH): Competitive
- Ki (EcIMPDH): 1100 ± 100 µM
- Inhibition (type) (AgIMPDH [1]): Competitive
- Ki (AgIMPDH [1]): 600 ± 100 µM
- Kd (AgIMPDH [2]): 24 µM
- Kd (AgIMPDH-ΔBateman): 22 µM
- n (binding stoichiometry) (AgIMPDH-ΔBateman; GMP titration, ΔBateman): 1.0
- ΔH (AgIMPDH-ΔBateman; GMP titration, ΔBateman): -7.7 kcal/mol
- Inhibition (type) (HsIMPDH2): Competitive
- n (binding stoichiometry) (AgIMPDH [3]): 0.9
- ΔH (AgIMPDH [3]): -9.1 kcal/mol
- Inhibition (type) (BsIMPDH): Competitive
- Ki (BsIMPDH): 420 ± 70 µM
- effect on enzymatic activity of ΔBateman mutant (KM app/KM) (AgIMPDH ΔBateman): inhibited the wild-type and ΔBateman enzymes in a similar manner

SMILES: Nc1ncnc2c1ncn2[C@@H]1O[C@H](COP(=O)(O)OP(=O)(O)OP(=O)(O)O)[C@@H](O)[C@H]1O [ATP]
- effect on catalytic activity (HsIMPDH1): neither ATP nor Mg-ATP showed a significant effect
- effect on catalytic activity (EcIMPDH): neither ATP nor Mg-ATP showed a significant effect
- effect on AgIMPDH catalytic activity in vitro (AgIMPDH [1]): did not exert any significant effect
- effect on catalytic activity (HsIMPDH2): neither ATP nor Mg-ATP showed a significant effect
- effect on catalytic activity (BsIMPDH): neither ATP nor Mg-ATP showed a significant effect

SMILES: Nc1nc2c(ncn2[C@@H]2O[C@H](COP(=O)(O)OP(=O)(O)O)[C@@H](O)[C@H]2O)c(=O)[nH]1 [GDP, guanosine-5′-diphosphate]
- Inhibition (type) (HsIMPDH1): Mixed type
- Ki (HsIMPDH1): 230 ± 40 µM
- α (substrate–inhibitor heterotropic cooperative interaction) (HsIMPDH1): 4.7±0.7
- β (fractional activity of the ternary enzyme–substrate-inhibitor complex) (HsIMPDH1): 0.12±0.04
- Inhibition (type) (EcIMPDH): No
- Inhibition (type) (AgIMPDH [1]): Mixed type
- α (substrate–inhibitor heterotropic cooperative interaction) (AgIMPDH [1]): 6.5±0.8
- β (fractional activity of the ternary enzyme–substrate-inhibitor complex) (AgIMPDH [1]): 0.033±0.005
- Ki (AgIMPDH [1]; read-out: Ki): 210 ± 40 µM
- Inhibition (type) (HsIMPDH2): Mixed type
- Ki (HsIMPDH2): 610 ± 60 µM
- α (substrate–inhibitor heterotropic cooperative interaction) (HsIMPDH2): 6.6±0.8
- β (fractional activity of the ternary enzyme–substrate-inhibitor complex) (HsIMPDH2): 0.14±0.05
- Inhibition (type) (BsIMPDH): Mixed type—weak
- Ki (BsIMPDH): 2300 ± 400 µM
- α (substrate–inhibitor heterotropic cooperative interaction) (BsIMPDH; mixed inhibition model): 2.9±0.4
- β (fractional activity of the ternary enzyme–substrate-inhibitor complex) (BsIMPDH; mixed inhibition model): 0.8±0.1
- effect on enzymatic activity of ΔBateman mutant (KM app/KM) (AgIMPDH ΔBateman): not significantly affected

SMILES: Nc1ncnc2c1ncn2[C@@H]1O[C@H](COP(=O)(O)OP(=O)(O)O)[C@@H](O)[C@H]1O [ADP]
- effect on AgIMPDH catalytic activity in vitro (AgIMPDH [1]): did not exert any significant effect

SMILES: Nc1ncnc2c1ncn2[C@@H]1O[C@H](COP(=O)(O)O)[C@@H](O)[C@H]1O [AMP]
- effect on AgIMPDH catalytic activity in vitro (AgIMPDH [1]): did not exert any significant effect

SMILES: Nc1ncnc2c1ncn2[C@@H]1O[C@H](COP(=O)(O)OP(=O)([O-])OP(=O)([O-])O)[C@@H](O)[C@H]1O.[Mg+2] [Mg-ATP]
- effect on catalytic activity (HsIMPDH1): neither ATP nor Mg-ATP showed a significant effect
- effect on catalytic activity (EcIMPDH): neither ATP nor Mg-ATP showed a significant effect
- effect on catalytic activity of AgIMPDH (Vmax app/Vmax, KM app/KM) (AgIMPDH [1]; total MgCl2 5 mM): not affected
- effect on catalytic activity (HsIMPDH2): neither ATP nor Mg-ATP showed a significant effect
- effect on catalytic activity (BsIMPDH): neither ATP nor Mg-ATP showed a significant effect

SMILES: Nc1nc2c(ncn2[C@@H]2O[C@H](COP(=O)(O)OP(=O)(O)OP(=O)(O)O)[C@@H](O)[C@H]2O)c(=O)[nH]1 [GTP, guanosine-5′-triphosphate]
- Inhibition (type) (HsIMPDH1): Mixed type
- Ki (HsIMPDH1): 540 ± 60 µM
- α (substrate–inhibitor heterotropic cooperative interaction) (HsIMPDH1): 3.8±0.5
- β (fractional activity of the ternary enzyme–substrate-inhibitor complex) (HsIMPDH1): 0.11±0.04
- Inhibition (type) (EcIMPDH): Competitive
- Inhibition (type) (AgIMPDH [1]): Mixed type
- α (substrate–inhibitor heterotropic cooperative interaction) (AgIMPDH [1]): 4.1±0.7
- β (fractional activity of the ternary enzyme–substrate-inhibitor complex) (AgIMPDH [1]): 0.24±0.05
- Ki (AgIMPDH [1]; read-out: Ki): 160 ± 40 µM
- Inhibition (type) (HsIMPDH2): Mixed type
- Ki (HsIMPDH2): 480 ± 60 µM
- α (substrate–inhibitor heterotropic cooperative interaction) (HsIMPDH2): 3.0±0.4
- β (fractional activity of the ternary enzyme–substrate-inhibitor complex) (HsIMPDH2): 0.51±0.08
- Inhibition (type) (BsIMPDH): No
- effect on enzymatic activity of ΔBateman mutant (KM app/KM) (AgIMPDH ΔBateman): not significantly affected
